# Source: patent US11352356B2, “Inhibitors of plasma kallikrein and uses thereof” (Takeda Pharmaceutical Company Limited, priority 2018, dated 2022)
# pEC50: −log10 of the molar value.
# Target: human activated kallikrein enzyme (Homo sapiens (Human), UniProt P03952)
# Test: Inhibition of human activated plasma kallikrein, fluorogenic peptide substrate assay, 500 pM enzyme format
# Type: biochemical
# Conditions: 500 pM activated kallikrein, 300 uM Pro-Phe-Arg-7-amido-4-methylcoumarin substrate, 30 min preincubation, 10 min reaction at RT; read-out: Primary Dose Response Assay: Average EC50
# Procedure: Example compounds were evaluated for inhibition of the human activated kallikrein enzyme in two formats of an assay employing a fluorogenic peptide substrate. In one assay format, the concentrations of reagents were as follows: 20 mM Tris pH 7.5, 1 mM EDTA, 150 mM sodium chloride, 0.1% PEG-400, 0.1% Triton X-100, 500 pM activated kallikrein enzyme, 300 uM Pro-Phe-Arg-7-amido-4-methylcoumarin substrate. Prior to reaction initiation with substrate, enzyme and inhibitors were preincubated for 30 min at RT. After initiation with substrate, reactions were incubated for 10 min at RT and fluorescence emission at 460 nm from 380 nm excitation measured with a microplate reader. In another assay format, the concentrations of reagents were as follows: 20 mM Tris pH 7.5, 1 mM EDTA, 150 mM sodium chloride, 0.1% PEG-400, 0.1% Triton X-100, 5 pM activated kallikrein enzyme, 300 uM Pro-Phe-Arg-7-amido-4-methylcoumarin substrate. Prior to reaction initiation with substrate, enzyme and inhibitors were preincubated for 30 min at RT. After initiation with substrate, reactions were incubated for 18 h at RT and fluorescence emission at 460 nm from 380 nm excitation measured with a microplate reader.
# Chain of human activated kallikrein enzyme (P03952 391-638): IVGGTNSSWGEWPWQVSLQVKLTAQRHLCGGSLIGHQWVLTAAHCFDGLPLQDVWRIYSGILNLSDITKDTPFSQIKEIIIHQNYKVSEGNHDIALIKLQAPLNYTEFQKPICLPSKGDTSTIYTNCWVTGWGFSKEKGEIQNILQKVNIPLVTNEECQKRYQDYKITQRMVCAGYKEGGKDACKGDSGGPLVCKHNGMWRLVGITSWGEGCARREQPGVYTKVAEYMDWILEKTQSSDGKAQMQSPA
# Chain of human activated kallikrein enzyme (P03952 20-390 partner): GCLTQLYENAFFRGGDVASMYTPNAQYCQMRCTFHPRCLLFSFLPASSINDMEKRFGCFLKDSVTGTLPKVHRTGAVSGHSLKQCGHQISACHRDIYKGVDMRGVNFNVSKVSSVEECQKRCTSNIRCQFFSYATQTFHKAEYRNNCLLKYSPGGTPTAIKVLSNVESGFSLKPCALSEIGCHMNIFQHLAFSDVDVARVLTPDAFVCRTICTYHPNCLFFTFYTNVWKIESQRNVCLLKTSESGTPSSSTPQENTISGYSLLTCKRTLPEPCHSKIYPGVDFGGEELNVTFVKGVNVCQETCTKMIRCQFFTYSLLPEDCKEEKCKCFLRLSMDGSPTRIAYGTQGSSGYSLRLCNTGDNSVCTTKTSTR
row,Molecule,pEC50
1,"O=C(NCc1ncn2ccc(Cl)c(F)c12)c1cn(Cc2cn3ccccc3n2)nn1 [I-286, N-((7-chloro-8-fluoroimidazo[1,5-a]pyridin-1-yl)methyl)-1-(imidazo[1,2-a]pyridin-2-ylmethyl)-1H-1,2,3-triazole-4-carboxamide]",7.00 to 8.00
2,"1-(2-((4-(((7-chloroimidazo[1,5-a]pyridin-1-yl)methyl)carbamoyl)-1H-pyrazol-1-yl)methyl)imidazo[1,2-a]pyridin-8-yl)cyclopropane-1-carboxylic acid [I-116]",8.00 to 9.00
3,"O=C(NCc1ncn2ccc(Cl)c(F)c12)c1cn(Cc2cc3ccc(C4CC4)cc3o2)nn1 [I-219, N-((7-chloro-8-fluoroimidazo[1,5-a]pyridin-1-yl)methyl)-1-((6-cyclopropylbenzofuran-2-yl)methyl)-1H-1,2,3-triazole-4-carboxamide]",7.00 to 8.00
4,"CCOC(=O)CCn1c(Cn2cc(C(=O)NCc3ncn4ccc(Cl)c(F)c34)nn2)cc2cc(C3CC3)ccc21 [I-251a, Ethyl 3-(2-((4-(((7-chloro-8-fluoroimidazo[1,5-a]pyridin-1-yl)methyl)carbamoyl)-1H-1,2,3-triazol-1-yl)methyl)-5-cyclopropyl-1H-indol-1-yl)propanoate]",8.00 to 9.00
5,"COc1ccc2nc(CNC(=O)c3cnn(Cc4cn5ccc(C6CC6)cc5n4)c3)cn2c1 [I-12, 1-((7-cyclopropylimidazo[1,2-a]pyridin-2-yl)methyl)-N-((6-methoxyimidazo[1,2-a]pyridin-2-yl)methyl)-1H-pyrazole-4-carboxamide]",7.00 to 8.00
6,"O=C(NCc1ncn2ccc(Cl)c(F)c12)c1cn(Cc2ccc3nccnc3c2)nn1 [I-292, N-((7-chloro-8-fluoroimidazo[1,5-a]pyridin-1-yl)methyl)-1-(quinoxalin-6-ylmethyl)-1H-1,2,3-triazole-4-carboxamide]",7.00 to 8.00
7,"N-((7-chloroimidazo[1,5-a]pyridin-1-yl)methyl)-1-((6-cyclopropyl-8-(2-methoxyethoxy)imidazo[1,2-a]pyridin-2-yl)methyl)-1H-pyrazole-4-carboxamide [I-103]",> 9.00
8,"O=C(NCc1ncn2ccc(Cl)cc12)c1cnn(Cc2cn3nc(C4CC4)ccc3n2)c1 [I-11, N-((7-chloroimidazo[1,5-a]pyridin-1-yl)methyl)-1-((6-cyclopropylimidazo[1,2-b]pyridazin-2-yl)methyl)-1H-pyrazole-4-carboxamide]",8.00 to 9.00

# Second part, the molecule after the results:
row,pEC50,Molecule
1,> 9.00,"N-((7-chloro-8-fluoroimidazo[1,5-a]pyridin-1-yl)methyl)-1-((8-(2-cyano-2-methylpropyl)-6-cyclopropylimidazo[1,2-a]pyridin-2-yl)methyl)-1H-pyrazole-4-carboxamide [I-237]"
2,> 9.00,"Ethyl 1-(2-((4-(((7-chloroimidazo[1,5-a]pyridin-1-yl)methyl)carbamoyl)-1H-pyrazol-1-yl)methyl)imidazo[1,2-a]pyridin-8-yl)cyclopropane-1-carboxylate [I-115]"
3,> 9.00,"O=C(NCc1ncn2ccc(Cl)c(F)c12)c1cn(Cc2cn3cc(C4CC4)cc(CC(F)C(=O)O)c3n2)nn1 (centres unmarked) [I-224b, 3-(2-((4-(((7-chloro-8-fluoroimidazo[1,5-a]pyridin-1-yl)methyl)carbamoyl)-1H-1,2,3-triazol-1-yl)methyl)-6-cyclopropylimidazo[1,2-a]pyridin-8-yl)-2-fluoropropanoic acid]"
4,> 9.00,"CC(C)(C(=O)O)C(O)c1cc(C2CC2)cn2cc(Cn3cc(C(=O)NCc4ncn5ccc(Cl)c(F)c45)nn3)nc12 (centres unmarked) [I-241b, 3-(2-((4-(((7-chloro-8-fluoroimidazo[1,5-a]pyridin-1-yl)methyl)carbamoyl)-1H-1,2,3-triazol-1-yl)methyl)-6-cyclopropylimidazo[1,2-a]pyridin-8-yl)-3-hydroxy-2,2-dimethylpropanoic acid]"
5,> 9.00,"N-((7-chloroimidazo[1,5-a]pyridin-1-yl)methyl)-1-((8-(1-(hydroxymethyl)cyclopropyl)imidazo[1,2-a]pyridin-2-yl)methyl)-1H-pyrazole-4-carboxamide [I-117]"

# Same assay, conditions: comparative compounds; 500 pM activated kallikrein format; read-out: Primary Dose Response Assay: Average EC50
row,Molecule,pEC50
1,Cc1ccn2cc(Cn3cc(C(=O)NCc4cnc5ccc(Cl)cn45)cn3)nc2c1 [reference compound],5.70 to 7.00
